System: IL-2
Test: PHA-IL2 (cell activation and cytokine analysis)
Format: cell-based
Conditions: 50% inhibition concentration class
Method: Cells to be tested may include, but are not limited to, a) Jurkat (a transformed human T cell leukemia), b) whole blood isolated from human or rodent sources, c) peripheral blood mononuclear cells (PBMC) freshly isolated from human or rodent whole blood, or d) purified fractions of PBMC (e.g., CD4 T cells). Cells are plated in 96-well plates at a final density of 1.0-2.0×10^6 cells/ml in 150 ul of assay medium (RPMI+0.5% fetal calf serum). Test compounds are included at a final concentration of ≤20 uM and generally pre-incubated with cells for 30 minutes prior to stimulation. An appropriate stimulus is added, including but not limited to, a) phytohemagglutinin (PHA), b) phorbol myristate acetate (PMA) and ionomycin, or c) stimulatory antibodies to the T cell receptor (TCR) complex (e.g., anti-CD3ε) and CD28. Cell cultures are stimulated for 24-48 hours in a humidified incubator (37 degrees C./5% CO2). A fraction of the culture supernatant is than harvested from each well and assayed for the presence of appropriate cytokine using standard ELISA. Cytokines to be analyzed may include IL-2, IL-4, IL-10, IL-17, IL-22, IFNγ, and/or TNFα. If required, the number of cytokine producing cells can be determined using intracellular staining and flow cytometry. […]

Row | SMILES | IC50 [µM]
1 | CC(Oc1ccccc1-c1ccccc1)C(=O)N1CCC(CCc2ccc3c(c2)OCO3)CC1 (centres unmarked) [Compound 153] | 10 to 50
2 | CCCC(Oc1ccccc1-c1ccccc1)C(=O)N1CCC(CCc2ccc3c(c2)OCO3)CC1 (centres unmarked) [Compound 154] | 10 to 50
3 | O=C(O)c1ccc(-c2ccccc2OCC(=O)N2CCC(CCc3ccc4c(c3)OCO4)CC2)cc1 [Compound 157] | 10 to 50
4 | O=C(O)c1cccc(-c2ccccc2OCC(=O)N2CCC(CCc3ccc4c(c3)OCO4)CC2)c1 [Compound 158] | 10 to 50
5 | O=C(COc1ccccc1-c1ccnc(N2CCOCC2)c1)N1CCC(CCc2ccc3c(c2)OCO3)CC1 [Compound 161] | 1 to 10
6 | NC(=O)c1cccc(-c2ccccc2OCC(=O)N2CCC(CCc3ccc4c(c3)OCO4)CC2)c1 [Compound 162] | 1 to 10
7 | COc1cccc(-c2ccccc2OCC(=O)N2CCC(CCc3ccc4c(c3)OCO4)CC2)c1 [Compound 163] | 1 to 10
8 | O=C(COc1ccccc1-c1ccc(F)cc1)N1CCC(CCc2ccc3c(c2)OCO3)CC1 [Compound 164] | 1 to 10
9 | Cc1cccc(-c2ccccc2OCC(=O)N2CCC(CCc3ccc4c(c3)OCO4)CC2)c1 [Compound 167] | 1 to 10
10 | CCN(CC)C(=O)c1ccc(-c2ccccc2OCC(=O)N2CCC(CCc3ccc4c(c3)OCO4)CC2)cc1 [Compound 168] | 1 to 10
11 | O=C(COc1ccccc1-c1ccc(O)cc1)N1CCC(CCc2ccc3c(c2)OCO3)CC1 [Compound 170] | 1 to 10
12 | CN(C)CCCOc1ccc(-c2ccccc2OCC(=O)N2CCC(CCc3ccc4c(c3)OCO4)CC2)cn1 [Compound 171] | 10 to 50
13 | O=C(NCCO)c1cccc(-c2ccccc2OCC(=O)N2CCC(CCc3ccc4c(c3)OCO4)CC2)c1 [Compound 172] | 10 to 50
14 | O=C(COc1ccccc1-c1ccc2c(c1)OCCO2)N1CCC(CCc2ccc3c(c2)OCO3)CC1 [Compound 173] | 1 to 10
15 | O=C(COc1ccccc1-c1ccc2nonc2c1)N1CCC(CCc2ccc3c(c2)OCO3)CC1 [Compound 174] | 1 to 10
16 | COc1ccc(CCC2(O)CCN(C(=O)COc3ccccc3-c3ccccc3)CC2)cc1 [Compound 175] | 10 to 50
17 | COc1ccc(CCC2(O)CCN(C(=O)COc3ccc(F)cc3-c3ccccc3)CC2)cc1 [Compound 176] | 10 to 50
18 | O=C(COc1ccccc1-c1ccccc1F)N1CCC(CCc2ccc3c(c2)OCO3)CC1 [Compound 177] | 1 to 10
19 | O=C(COc1ccccc1-c1ccc(OC(F)(F)F)cc1)N1CCC(CCc2ccc3c(c2)OCO3)CC1 [Compound 178] | 1 to 10
20 | O=C(COc1ccccc1-c1cccc(OC(F)(F)F)c1)N1CCC(CCc2ccc3c(c2)OCO3)CC1 [Compound 179] | 1 to 10
21 | COc1ccccc1-c1ccccc1OCC(=O)N1CCC(CCc2ccc3c(c2)OCO3)CC1 [Compound 180] | 1 to 10
22 | NS(=O)(=O)c1ccc(-c2ccccc2OCC(=O)N2CCC(CCc3ccc4c(c3)OCO4)CC2)cc1 [Compound 181] | 10 to 50
23 | O=C(NCCO)c1ccc(-c2ccccc2OCC(=O)N2CCC(CCc3ccc4c(c3)OCO4)CC2)cc1 [Compound 182] | 10 to 50

Row | SMILES | IC50 [µM]
24 | NC(=O)c1ccc(-c2ccccc2OCC(=O)N2CCC(CCc3ccc4c(c3)OCO4)CC2)cc1 [Compound 183] | 10 to 50
25 | O=C(COc1ccccc1-c1ccccc1OC(F)(F)F)N1CCC(CCc2ccc3c(c2)OCO3)CC1 [Compound 184] | 10 to 50
26 | CCN(CC)C(=O)c1cccc(-c2ccccc2OCC(=O)N2CCC(CCc3ccc4c(c3)OCO4)CC2)c1 [Compound 185] | 10 to 50
27 | CCOc1ccc(-c2ccccc2OCC(=O)N2CCC(CCc3ccc4c(c3)OCO4)CC2)cc1 [Compound 186] | 1 to 10
28 | O=C(COc1ccccc1-c1cccc(F)c1)N1CCC(CCc2ccc3c(c2)OCO3)CC1 [Compound 187] | 1 to 10
29 | COc1ccc(-c2ccccc2OCC(=O)N2CCC(CCc3ccc4c(c3)OCO4)CC2)cc1 [Compound 189] | 1 to 10
30 | COc1ncccc1-c1ccccc1OCC(=O)N1CCC(CCc2ccc3c(c2)OCO3)CC1 [Compound 191] | 1 to 10
31 | N#Cc1cccc(-c2ccccc2OCC(=O)N2CCC(CCc3ccc4c(c3)OCO4)CC2)c1 [Compound 192] | 1 to 10
32 | O=C(COc1ccccc1-c1cccnc1)N1CCC(CCc2ccc3c(c2)OCO3)CC1 [Compound 194] | 1 to 10
33 | Nc1ccc(-c2ccccc2OCC(=O)N2CCC(CCc3ccc4c(c3)OCO4)CC2)cc1 [Compound 195] | 10 to 50
34 | O=C(O)c1cncc(-c2ccccc2OCC(=O)N2CCC(CCc3ccc4c(c3)OCO4)CC2)c1 [Compound 196] | 10 to 50
35 | Cc1ccc(-c2ccccc2OCC(=O)N2CCC(CCc3ccc4c(c3)OCO4)CC2)cc1 [Compound 202] | 1 to 10
36 | C=C(C)c1cccc(-c2ccccc2OCC(=O)N2CCC(CCc3ccc4c(c3)OCO4)CC2)c1 [Compound 205] | 1 to 10
37 | O=C(COc1ccccc1-c1ccccc1)N1CCC(CCc2ccc3c(c2)OC(F)(F)O3)CC1 [Compound 211] | 1 to 10
38 | CN(C)c1ccc(-c2ccccc2OCC(=O)N2CCC(CCc3ccc4c(c3)OCO4)CC2)cc1 [Compound 213] | 10 to 50
39 | O=C(COc1ccccc1-c1cccc(OCc2ccccc2)c1)N1CCC(CCc2ccc3c(c2)OCO3)CC1 [Compound 217] | 1 to 10
40 | O=C(COc1ccccc1-c1ccc(-c2ccccc2)cc1)N1CCC(CCc2ccc3c(c2)OCO3)CC1 [Compound 218] | 1 to 10
41 | O=C(CCc1ccccc1-c1ccccc1)N1CCC(CCc2ccc3c(c2)OCO3)CC1 [Compound 219] | 10 to 50
42 | O=C(CCc1ccccc1-c1ccccc1)N1CCC(CCc2cc(F)cc(F)c2)CC1 [Compound 220] | 10 to 50
43 | COc1cccc(CCC2CCN(C(=O)CCc3ccccc3-c3ccccc3)CC2)c1 [Compound 221] | 10 to 50
44 | O=C(CCc1ccccc1-c1ccc(F)cc1)N1CCC(CCc2ccc3c(c2)OCO3)CC1 [Compound 222] | 1 to 10
45 | O=C(CCc1ccccc1-c1ccc(F)cc1)N1CCC(CCc2cc(F)cc(F)c2)CC1 [Compound 223] | 1 to 10
46 | COc1cccc(CCC2CCN(C(=O)CCc3ccccc3-c3ccc(F)cc3)CC2)c1 [Compound 224] | 1 to 10

The next lines start with the values.

Row | IC50 [µM] | SMILES
47 | < 1 | O=C(COc1ccccc1-c1ccccc1)N1CCC(CCc2cc(C(F)(F)F)cc(C(F)(F)F)c2)CC1 [Compound 117]
48 | < 1 | O=C(COc1ccccc1-c1ccccc1)N1CCC(CCc2ccc(F)c(F)c2)CC1 [Compound 120]
49 | 1 to 10 | COc1ccccc1CCC1CCN(C(=O)COc2ccccc2-c2ccccc2)CC1 [Compound 126]
50 | 1 to 10 | Cc1ccccc1-c1ccccc1OCC(=O)N1CCC(CCc2ccc3c(c2)OCO3)CC1 [Compound 155]
51 | 1 to 10 | CCc1ccc(-c2ccccc2OCC(=O)N2CCC(CCc3ccc4c(c3)OCO4)CC2)cc1 [Compound 156]
52 | 1 to 10 | CCOC(=O)c1cccc(-c2ccccc2OCC(=O)N2CCC(CCc3ccc4c(c3)OCO4)CC2)c1 [Compound 159]
53 | 1 to 10 | O=C(COc1ccccc1-c1cccc(O)c1)N1CCC(CCc2ccc3c(c2)OCO3)CC1 [Compound 160]
54 | < 1 | O=C(COc1ccccc1-c1ccccc1Cl)N1CCC(CCc2ccc3c(c2)OCO3)CC1 [Compound 165]
55 | < 1 | N#Cc1ccc(-c2ccccc2OCC(=O)N2CCC(CCc3ccc4c(c3)OCO4)CC2)cc1 [Compound 166]
56 | < 1 | N#Cc1cc(-c2ccccc2OCC(=O)N2CCC(CCc3ccc4c(c3)OCO4)CC2)ccc1F [Compound 188]
57 | < 1 | O=C(COc1ccccc1-c1ccc(Cl)cc1)N1CCC(CCc2ccc3c(c2)OCO3)CC1 [Compound 190]
58 | < 1 | O=C(COc1ccccc1-c1ccc(F)nc1)N1CCC(CCc2ccc3c(c2)OCO3)CC1 [Compound 193]
59 | < 1 | N#CCc1ccc(-c2ccccc2OCC(=O)N2CCC(CCc3ccc4c(c3)OCO4)CC2)cc1 [Compound 197]
60 | < 1 | O=C(c1ccccc1)c1ccc(-c2ccccc2OCC(=O)N2CCC(CCc3ccc4c(c3)OCO4)CC2)cc1 [Compound 198]
61 | < 1 | COc1ccc(-c2ccccc2OCC(=O)N2CCC(CCc3ccc4c(c3)OCO4)CC2)cn1 [Compound 199]
62 | < 1 | O=C(COc1ccccc1-c1cc(F)c(F)c(F)c1)N1CCC(CCc2ccc3c(c2)OCO3)CC1 [Compound 200]
63 | < 1 | O=C(COc1ccccc1-c1cccc(Cl)c1)N1CCC(CCc2ccc3c(c2)OCO3)CC1 [Compound 201]
64 | < 1 | O=C(COc1ccccc1-c1ccc(C(F)(F)F)cc1)N1CCC(CCc2ccc3c(c2)OCO3)CC1 [Compound 203]
65 | < 1 | O=C(COc1ccccc1-c1cccc(C(F)(F)F)c1)N1CCC(CCc2ccc3c(c2)OCO3)CC1 [Compound 204]
66 | < 1 | CCOc1cccc(-c2ccccc2OCC(=O)N2CCC(CCc3ccc4c(c3)OCO4)CC2)c1 [Compound 206]
67 | < 1 | CCOc1ccccc1-c1ccccc1OCC(=O)N1CCC(CCc2ccc3c(c2)OCO3)CC1 [Compound 207]
68 | < 1 | O=C(COc1ccccc1-c1ccccc1)N1CCC(CCc2ccc3c(c2)OCCCO3)CC1 [Compound 208]
69 | < 1 | CC(Oc1ccccc1-c1ccccc1)C(=O)N1CCC(CCc2ccc3c(c2)OCCCO3)CC1 (centres unmarked) [Compound 209]
70 | < 1 | CCCC(Oc1ccccc1-c1ccccc1)C(=O)N1CCC(CCc2ccc3c(c2)OCCCO3)CC1 (centres unmarked) [Compound 210]
71 | < 1 | O=C(COc1ccccc1-c1ccccc1Oc1ccccc1)N1CCC(CCc2ccc3c(c2)OCO3)CC1 [Compound 216]

Reference: patent publication US10899747B2, “Biaryl piperidine amide compounds and methods of use thereof” (Athenex, Inc., priority 2017, dated 2021)
